US11858922B2, “Sulfonylureas and related compounds and use of same” (The University of Queensland, priority 2016, dated 2024)

biological target: not listed separately; experiment: Isothermal titration calorimetry (ITC), copper complexation of MCC950; format: binding; conditions: ITC, CuCl2 titrated into 0.4 mM MCC950Na in water, 25° C.
Protocol: Complex formation between the sodium form of MCC950 and copper chloride was tested and detected by using isothermal titration calorimetry (ITC). MCC950 (also known as CRID3) is a sulphonylurea having the formula: […]
An autoITC 200 (GE life sciences) was used to measure the change in heat induced by Cu^2+-MCC950 interactions and data analysed using the MicroCal Origin version 7.0 software package adapted for auto-ITC data analysis.
Copper chloride (5 or 2.5 mM of CuCl2) dissolved in water (miliQ water; Elga) was titrated into a cell containing 0.4 mM MCC950Na also dissolved in water. The titration consisted of 19×2 μL injections at 25° C. As a control EDTA was used, in free acid form or as a sodium di-salt, at a concentration of 0.4 mM. Experiments were replicated three times and results were averaged. Thermograms and binding isotherms were used to determine the enthalpy (ΔH), binding constants (K), stoichiometry (N), and entropy (TΔS) using a single-site binding model. The change in standard Gibbs free energy (ΔG) was calculated using the Gibbs-Helmholz thermodynamic equation: ΔG=−RTInK, where R is the ideal gas constant (1.985 cal mol^−1K^−1) and T is the temperature (298 K).

Row | K (binding constant) | Compound
1 | 5.69 ± 0.3 10^4 M^−1 | CC(C)(O)c1coc(S(=O)(=O)NC(=O)Nc2c3c(cc4c2CCC4)CCC3)c1 [MCC950]

same assay, conditions: MCC950 sodium salt

Row | binding to Cu^2+ (ITC, FIG. 1) | Compound
2 | significant binding | CC(C)(O)c1coc(S(=O)(=O)NC(=O)Nc2c3c(cc4c2CCC4)CCC3)c1 [MCC950]

tested on: not listed separately; experiment: Isothermal titration calorimetry (ITC), Ca^2+ binding; conditions: MCC950 sodium salt

Row | binding to Ca^2+ (ITC, FIG. 1) | Compound
3 | no binding | CC(C)(O)c1coc(S(=O)(=O)NC(=O)Nc2c3c(cc4c2CCC4)CCC3)c1 [MCC950]

biological target: T1, NLRP3 inflammasome (Homo sapiens, UniProt Q96P20); experiment: Inhibition of IL-1β release, cell based assay using HMDM (NLRP3 inflammasome activation assay); conditions: not given
T1 construct: endogenous in cells; host or cells: HMDM (human monocyte-derived macrophages from buffy coat blood)
T1 sequence (Q96P20 whole entry): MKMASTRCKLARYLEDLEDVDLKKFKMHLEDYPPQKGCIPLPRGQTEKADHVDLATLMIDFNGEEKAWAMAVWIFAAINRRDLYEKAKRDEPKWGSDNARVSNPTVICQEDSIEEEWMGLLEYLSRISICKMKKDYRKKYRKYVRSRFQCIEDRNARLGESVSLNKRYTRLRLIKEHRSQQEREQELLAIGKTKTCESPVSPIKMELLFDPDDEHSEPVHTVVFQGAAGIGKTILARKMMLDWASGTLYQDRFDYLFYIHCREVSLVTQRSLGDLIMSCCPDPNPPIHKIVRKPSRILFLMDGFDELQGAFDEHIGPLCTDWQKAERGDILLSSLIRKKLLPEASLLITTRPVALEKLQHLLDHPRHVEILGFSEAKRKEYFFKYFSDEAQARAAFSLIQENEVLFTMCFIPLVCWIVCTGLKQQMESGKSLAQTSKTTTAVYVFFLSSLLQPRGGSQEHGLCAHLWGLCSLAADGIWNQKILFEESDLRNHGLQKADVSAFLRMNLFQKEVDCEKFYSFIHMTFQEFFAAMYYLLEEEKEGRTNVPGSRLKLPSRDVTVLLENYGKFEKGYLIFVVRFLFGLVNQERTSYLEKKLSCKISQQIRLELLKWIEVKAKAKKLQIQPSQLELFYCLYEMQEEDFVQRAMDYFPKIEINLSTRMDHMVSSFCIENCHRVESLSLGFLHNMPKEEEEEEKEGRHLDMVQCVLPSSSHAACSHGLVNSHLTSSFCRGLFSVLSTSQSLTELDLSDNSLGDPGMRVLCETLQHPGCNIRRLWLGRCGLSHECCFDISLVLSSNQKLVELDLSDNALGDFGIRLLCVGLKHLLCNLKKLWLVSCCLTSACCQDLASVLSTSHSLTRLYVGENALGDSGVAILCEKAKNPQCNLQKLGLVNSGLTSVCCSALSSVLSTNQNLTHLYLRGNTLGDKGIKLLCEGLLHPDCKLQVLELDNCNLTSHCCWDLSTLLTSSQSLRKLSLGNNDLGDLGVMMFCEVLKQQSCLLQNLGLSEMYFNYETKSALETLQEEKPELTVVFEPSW
Protocol: The following assays can be used to determine inhibitory activity of test compounds on the NLRP3 inflammasome using common stimuli such as adenosine triphosphate, nigericin, LeuLeu-OMe or monosodium urate crystals (MSU).
To generate HMDM (Human Monocyte Derived Macrophages), human monocytes are isolated from buffy coat blood using Ficoll-Plaque Plus (GE Healthcare) and density centrifugation. CD14^+ cell selection is performed using MACS magnetic beads (Miltenyl Biotec). Isolated CD14^+ monocytes are differentiated in culture for 7 days with 10 ng/ml human CSF-1 (Miltenyl Biotec) in Iscove's modified Dulbecco's medium (IMDM) containing L-glutamine supplemented with 10% FBS and 1% penicillin/streptomycin (Life Technologies) as described by Croker et al 2013 Immunol Cell Biol 91:625. Stably transfected ASC-cerulean macrophages as described by Hett et al. (Nat. Chem. Biol., 9, 398-405, 2013) are cultured in DMEM supplemented with 10% FCS and 1% P/S.
HMDM are seeded at 1×10^5/ml. […]
For ELISA and cell death assays cells are seeded in 96 well plates. Supernatants are removed and analysed using ELISA kits according to the manufacturer's instructions (DuoSet® R&D Systems, ReadySetGo!® eBioscience, BD OptEIA™, or Perkin Elmer AlphaLISA®). Cell death is assessed by measurement of LDH release relative to a 100% cell lysis control using the CytoTox96® non-radioactive cytotoxicity assay (Promega).

Row | IC50 [µM] | Compound
4 | < 1 | CN1CCN(S(=O)(=O)NC(=O)Nc2c3c(cc4c2CCC4)CCC3)CC1 [Example 2, N-((1,2,3,5,6,7-hexahydro-s-indacen-4-yl)carbamoyl)-4-methylpiperazine-1-sulfonamide]
5 | < 10 | CC(C)n1ccc(S(=O)(=O)NC(=O)Nn2c3ccccc3c3ccccc32)n1 [Example 4, N-((9H-carbazol-9-yl)carbamoyl)-1-isopropyl-1H-pyrazole-3-sulfonamide]

biological target: T2, NLRP3 (Homo sapiens, UniProt Q96P20); experiment: THP-1 cells pyroptosis assay; format: cell-based; conditions: LPS 1.0 μg/ml, nigericin 5 μM, resazurin readout
T2 construct: Seed THP-1 cells (25,000 cells/well) containing 1.0 μg/ml LPS; host or cells: THP-1 cells
T2 sequence (Q96P20 whole entry): as above
From the text: It is well established that the activation of NLRP3 leads to cell pyroptosis and this feature plays an important part in the manifestation of the clinical disease (Yan-gang Liu et al., Cell Death & Disease, 2017, 8(2), e2579; Alexander Wree et al., Hepatology, 2014, 59(3), 898-910; Alex Baldwin et al., Journal of Medicinal Chemistry, 2016, 59(5), 1691-1710; Ema Ozaki et al., Journal of Inflammation Research, 2015, 8, 15-27; Zhen Xie & Gang Zhao, Neuroimmunology Neuroinflammation, 2014, 1(2), 60-65; Mattia Cocco et al., Journal of Medicinal Chemistry, 2014, 57(24), 10366-10382; T. Satoh et al., Cell Death & Disease, 2013, 4, e644). Therefore, it is anticipated that inhibitors of NLRP3 will block pyroptosis, as well as the release of pro-inflammatory cytokines (e.g. IL-1β) from the cell.
THP-1 cells (ATCC #TIB-202) were grown in RPMI containing L-glutamine (Gibco #11835) supplemented with 1 mM sodium pyruvate (Sigma #S8636) and penicillin (100 units/ml)/streptomycin (0.1 mg/ml) (Sigma #P4333) in 10% Fetal Bovine Serum (FBS) (Sigma #F0804). The cells were routinely passaged and grown to confluency (˜10^6 cells/ml). On the day of the experiment, THP-1 cells were harvested and resuspended into RPMI medium (without FBS). The cells were then counted and viability (>90%) checked by Trypan blue (Sigma #T8154). Appropriate dilutions were made to give a concentration of 625,000 cells/ml. To this diluted cell solution was added LPS (Sigma #L4524) to give a 1 μg/ml Final Assay Concentration (FAC). 40 μl of the final preparation was aliquoted into each well of a 96-well plate. The plate thus prepared was used for compound screening.
The following method step-by-step assay was followed for compound screening. • 1. Seed THP-1 cells (25,000 cells/well) containing 1.0 μg/ml LPS in 40 μl of RPMI medium (without FBS) in 96-well, black walled, clear bottom cell culture plates coated with poly-D-lysine (VWR #734-0317) • 2. Add 5 μl compound (8 points half-log dilution, with 10 μM top dose) or vehicle (DMSO 0.1% FAC) to the appropriate wells • 3. Incubate for 3 hrs at 37° C. in 5% CO2 • 4. Add 5 μl nigericin (Sigma #N7143) (FAC 5 μM) to all wells • 5. Incubate for 1 hr at 37° C. and 5% CO2 • 6. At the end of the incubation period, spin plates at 300×g for 3 mins and remove supernatant • 7. Then add 50 μl of resazurin (Sigma #R7017) (FAC 100 μM resazurin in RPMI medium without FBS) and incubate plates for a further 1-1.5 h at 37° C. and 5% CO2 • 8. Plates were read in an Envision reader at Ex 560 nm and Em 590 nm • 9. IC50 data is fitted to a non-linear regression equation (log inhibitor vs response-variable slope 4-parameters) 96-Well Plate Map

Row | IC50 [µM] | Compound
6 | < 10 | O=C(Nc1c2c(cc3c1CCC3)CCC2)NS(=O)(=O)NCCOc1ccccc1Cl [Example 5]
7 | < 10 | O=C(Nc1c2c(cc3c1CCC3)CCC2)NS(=O)(=O)NCc1ccc(Cl)cc1F [Example 6]
8 | < 10 | CS(=O)(=O)c1cccc(CNS(=O)(=O)NC(=O)Nc2c3c(cc4c2CCC4)CCC3)c1 [Example 7]
9 | < 10 | O=C(Nc1c2c(cc3c1CCC3)CCC2)NS(=O)(=O)NCc1c(F)cc(F)cc1F [Example 11]
10 | < 10 | CCN(C)C1(CNS(=O)(=O)NC(=O)Nc2c3c(cc4c2CCC4)CCC3)CCCCC1 [Example 12]
11 | < 10 | O=C(Nc1c2c(cc3c1CCC3)CCC2)NS(=O)(=O)N1CCN(CCc2cccs2)CC1 [Example 13]
12 | < 10 | O=C(Nc1c2c(cc3c1CCC3)CCC2)NS(=O)(=O)NCc1ccco1 [Example 14]
13 | < 10 | O=C(Nc1c2c(cc3c1CCC3)CCC2)NS(=O)(=O)NCCc1nccs1 [Example 15]
14 | < 50 | O=C(Nc1c2c(cc3c1CCC3)CCC2)NS(=O)(=O)N(CCN1CCOCC1)Cc1ccco1 [Example 17]
15 | < 10 | CN(C)CCN(Cc1ccsc1)S(=O)(=O)NC(=O)Nc1c2c(cc3c1CCC3)CCC2 [Example 18]
16 | < 1 | O=C(Nc1c2c(cc3c1CCC3)CCC2)NS(=O)(=O)N(Cc1ccccc1)Cc1nccs1 [Example 19]
17 | < 10 | CN(Cc1csc(-c2ccccc2)n1)S(=O)(=O)NC(=O)Nc1c2c(cc3c1CCC3)CCC2 [Example 20]
18 | < 10 | O=C(Nc1c2c(cc3c1CCC3)CCC2)NS(=O)(=O)NCCc1nc(-c2cccnc2)no1 [Example 21]
19 | < 10 | O=C(Nc1c2c(cc3c1CCC3)CCC2)NS(=O)(=O)NCc1cccs1 [Example 23]
20 | < 10 | Cc1ccc(OCCNS(=O)(=O)NC(=O)Nc2c3c(cc4c2CCC4)CCC3)cc1 [Example 24]
21 | < 10 | O=C(Nc1c2c(cc3c1CCC3)CCC2)NS(=O)(=O)NCCCc1ccccc1 [Example 25]

Row | IC50 [µM] | Compound
22 | < 10 | Cc1ccccc1OCCNS(=O)(=O)NC(=O)Nc1c2c(cc3c1CCC3)CCC2 [Example 26]
23 | < 10 | Cc1nccn1-c1ccc(NS(=O)(=O)NC(=O)Nc2c3c(cc4c2CCC4)CCC3)cc1 [Example 27]
24 | < 10 | O=C(Nc1c2c(cc3c1CCC3)CCC2)NS(=O)(=O)N1CCc2ccccc21 [Example 28]
25 | < 10 | CN(Cc1ccncc1)S(=O)(=O)NC(=O)Nc1c2c(cc3c1CCC3)CCC2 [Example 29]
26 | < 50 | O=C(Nc1c2c(cc3c1CCC3)CCC2)NS(=O)(=O)NCc1ccncc1 [Example 30]
27 | < 10 | CN(c1ccccc1)S(=O)(=O)NC(=O)Nc1c2c(cc3c1CCC3)CCC2 [Example 31]
28 | < 10 | CN(Cc1ccc(F)cc1)S(=O)(=O)NC(=O)Nc1c2c(cc3c1CCC3)CCC2 [Example 32]
29 | < 10 | Cc1ccc(NS(=O)(=O)NC(=O)Nc2c3c(cc4c2CCC4)CCC3)cc1C#N [Example 33]
30 | < 10 | CCn1c(=O)n(CC)c2cc(NS(=O)(=O)NC(=O)Nc3c4c(cc5c3CCC5)CCC4)c(C)cc21 [Example 34]
31 | < 1 | COc1cc(C)c(NS(=O)(=O)NC(=O)Nc2c3c(cc4c2CCC4)CCC3)cn1 [Example 35]
32 | < 10 | CC(=O)c1cc2c(cc1NS(=O)(=O)NC(=O)Nc1c3c(cc4c1CCC4)CCC3)OCO2 [Example 36]
33 | < 10 | O=C(Nc1c2c(cc3c1CCC3)CCC2)NS(=O)(=O)Nc1cccc2c1CCC2 [Example 37]
34 | < 10 | Cc1ccnc(C)c1NS(=O)(=O)NC(=O)Nc1c2c(cc3c1CCC3)CCC2 [Example 39]
35 | < 10 | O=C(Nc1c2c(cc3c1CCC3)CCC2)NS(=O)(=O)NCCN1CCc2ccccc21 [Example 40]
36 | < 1 | Cn1ncc2ccc(NS(=O)(=O)NC(=O)Nc3c4c(cc5c3CCC5)CCC4)cc21 [Example 42, 1-(1,2,3,5,6,7-Hexahydro-s-indacen-4-yl)-3-[(1-methyl-1H-indazol-6-yl)sulfamoyl]urea]
37 | < 1 | O=C(Nc1c2c(cc3c1CCC3)CCC2)NS(=O)(=O)Nc1ccc2[nH]ccc2c1 [Example 43, 3-(1,2,3,5,6,7-Hexahydro-s-indacen-4-yl)-1-[(1H-indol-5-yl)sulfamoyl]urea]

tested on: not given; experiment: not given; conditions: mouse; cited from earlier work

Row | Compound | half-life [h]
38 | CC(C)(O)c1coc(S(=O)(=O)NC(=O)Nc2c3c(cc4c2CCC4)CCC3)c1 [MCC950] | 3.2
